These results are taken from ChEMBL document CHEMBL4004785, “Spiro Meroterpenoids from Ganoderma applanatum” (J Nat Prod, 2017).

The assay concerns the target T1, Tyrosine-protein kinase JAK3 (Homo sapiens, UniProt P52333).
T1 sequence (P52333 whole entry): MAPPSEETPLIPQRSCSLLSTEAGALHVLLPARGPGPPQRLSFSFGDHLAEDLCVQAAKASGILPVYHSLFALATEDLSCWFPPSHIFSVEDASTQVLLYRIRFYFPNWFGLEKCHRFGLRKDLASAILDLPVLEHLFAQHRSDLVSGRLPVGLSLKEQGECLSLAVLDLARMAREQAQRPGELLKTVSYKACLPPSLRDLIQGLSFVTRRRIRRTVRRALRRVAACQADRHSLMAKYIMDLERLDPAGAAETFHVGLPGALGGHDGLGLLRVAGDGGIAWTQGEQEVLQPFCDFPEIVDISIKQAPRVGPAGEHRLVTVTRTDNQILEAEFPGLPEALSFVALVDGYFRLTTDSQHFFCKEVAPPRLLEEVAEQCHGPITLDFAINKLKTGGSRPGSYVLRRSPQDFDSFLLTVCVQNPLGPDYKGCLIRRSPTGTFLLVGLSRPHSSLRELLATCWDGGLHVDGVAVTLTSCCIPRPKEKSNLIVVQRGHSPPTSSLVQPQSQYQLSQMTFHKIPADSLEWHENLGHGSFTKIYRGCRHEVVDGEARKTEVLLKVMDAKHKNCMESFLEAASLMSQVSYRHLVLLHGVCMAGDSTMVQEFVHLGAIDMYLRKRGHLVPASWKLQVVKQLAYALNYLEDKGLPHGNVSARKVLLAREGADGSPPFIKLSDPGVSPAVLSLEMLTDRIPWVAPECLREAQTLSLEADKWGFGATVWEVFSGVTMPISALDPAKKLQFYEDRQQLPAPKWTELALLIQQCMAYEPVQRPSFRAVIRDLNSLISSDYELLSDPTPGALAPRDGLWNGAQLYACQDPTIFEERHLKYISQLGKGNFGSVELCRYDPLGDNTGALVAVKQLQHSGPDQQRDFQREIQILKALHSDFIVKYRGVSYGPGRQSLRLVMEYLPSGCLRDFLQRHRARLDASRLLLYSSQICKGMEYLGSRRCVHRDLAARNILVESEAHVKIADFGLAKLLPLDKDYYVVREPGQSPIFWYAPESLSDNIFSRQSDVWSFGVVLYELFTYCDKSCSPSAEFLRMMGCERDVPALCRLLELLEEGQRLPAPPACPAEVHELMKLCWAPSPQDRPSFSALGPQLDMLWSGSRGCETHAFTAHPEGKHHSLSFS
The assay can be described thus: Inhibition of human recombinant GST-tagged JAK3 cytoplasmic domain (781 to 1124 residues) expressed in baculovirus expression system incubated for 1 hr by FRET-based Z'-Lyte assay.

`O=CC1=CCC[C@@H](C(=O)O)[C@@]2(C1)Oc1ccc(O)cc1C2=O`: the IC50 was found to be 34.8 µM.
To `O=CC1=CCC[C@@H](C(=O)O)[C@]2(C1)Oc1ccc(O)cc1C2=O` belongs 7 µM.
